Measured values as given in paper PMC3574224, “Na^+ Regulation in the Malaria Parasite Plasmodiumfalciparum Involves the Cation ATPase PfATP4 and Is a Target of the Spiroindolone Antimalarials” (Cell Host & Microbe, 2013).

Columns and labels:
[1] = test system: P. falciparum trophozoites; experiment: Recovery of [Na^+]i from an imposed intracellular Na^+ load (K^+ removal and restoration); format: cell-based, Plasmodium falciparum; settings: added with 10 mM KCl
Experimental: The mechanism responsible for the increase in [Na^+]i seen upon removal of extracellular K^+ was not investigated further here. However, the phenomenon does provide a useful means of imposing an intracellular Na^+ load on the parasite and of testing the effect of inhibitors on the net efflux of Na^+ from the Na^+-loaded parasite.
(§1) The [Na^+]i of saponin-isolated parasites was measured at 37°C using the Na^+-sensitive dye SBFI (Molecular Probes, Invitrogen) in conjunction with a PerkinElmer LS 50B Fluorescence Spectrometer fitted with a Dual Excitation Fast Filter. Saponin-isolated parasites were loaded with SBFI by suspension (at 1.40–1.80 × 10^8 cells/mL) for 20 min at 37°C in bicarbonate-free RPMI1640 supplemented with 20 mM D-glucose, 0.2 mM hypoxanthine, 25 mM HEPES, and 25 mg/L gentamycin sulfate (pH 7.10), to which SBFI-acetoxymethyl ester (5.5 μM) and Pluronic F-127 (0.01% w/v) were added. The dye-loaded cells were washed twice (12,000 × g, 0.5 min) in bicarbonate-free RPMI then incubated for a further 20 min at 37°C to allow for complete de-esterification of the dye before being resuspended at a final cell concentration of 1.5–2.5 × 10^7 cells/mL in standard saline. The dye-loaded cells were excited at 340 nm and 380 nm with fluorescence recorded at 490 nm. Calibration of the relationship between the 340/380 nm fluorescence ratio and [Na^+]i (see Figures S1A–S1C) was carried out as described previously ([Diarra et al., 2001]; [Harootunian et al., 1989]). Several inhibitors used in this study caused inner filter effects ([Gu and Kenny, 2009]; [Srinivas and Mutharasan, 1987]); in these cases calibration curves were generated with the inhibitors present.
The rate of efflux of Na^+ from the cells, following an imposed intracellular Na^+ load, was estimated by fitting the following function to the [Na^+]i traces: [Na^+]i = Δ[Na^+]i^max × e^-at + [Na^+]i^final, where Δ[Na^+]i^max is the increase in [Na^+]i above the normal resting value (following the imposition of an intracellular Na^+-load), t is the time after the commencement of efflux (on addition of extracellular K^+), a is a fitted constant, and [Na^+]i^final is the final value of [Na^+]i. The initial Na^+ efflux rate (at t = 0) is a × Δ[Na^+]i^max, and the half-time to complete recovery (t1/2) is ln(0.5)/-a.

P. falciparum Dd2 parent [2] = experiment: Parasite proliferation, [^3H]hypoxanthine incorporation, Dd2 parent; format: cell-based; settings: Plasmodium falciparum, DD2, read-out: IC50 for inhibition of parasite proliferation by NITD246
Experimental: (§2) Parasite growth assays were performed in 96-well plates over 48 hr (commencing at the ring stage) using a standard [^3H]hypoxanthine incorporation assay ([Desjardins et al., 1979]).
(§3) Dose-response curves were obtained using the expression y = y^min + y^max/(1 + [C/IC50]^b), where y is the parameter being measured (parasite proliferation, Na^+ influx, or ATPase activity), y^min is the minimum value of y, y^max is the maximum value of y, C is the concentration of the moiety that was varied in the experiment, IC50 is the concentration at which y was reduced to 50% of y^max, and b is a fitted constant.

[3] = test system: P. falciparum trophozoites; experiment: Cytosolic pH (pHi) in BCECF-loaded saponin-isolated parasites; format: cell-based, Plasmodium falciparum; settings: 50 nM
Experimental: pHi of saponin-isolated parasites was measured using the pH-sensitive indicator BCECF (Molecular Probes, Invitrogen) as described previously ([Saliba and Kirk, 1999]). […] Critical experiments performed using SBFI-loaded parasites were repeated with parasites loaded with BCECF.

[4] = test system: P. falciparum 3D7 trophozoites; experiment: microbe, parasite or virus in culture; format: cell-based, Plasmodium falciparum
Experimental: P. falciparum strains 3D7, Dd2, NITD609-R^Dd2 clone #2, Dd2^attB, and Dd2^attB CAM I398F/P990R were cultured under shaking conditions as described elsewhere ([Allen and Kirk, 2010]). Cultures were synchronized 24 hr before experimentation using 5% w/v sorbitol ([Lambros and Vanderberg, 1979]). All experiments were conducted on mature trophozoite-stage parasites (36–40 hr postinvasion) functionally isolated from their host erythrocytes by permeabilization of the erythrocyte and parasitophorous vacuole membranes by brief exposure to saponin (0.05% w/v) as described previously ([Spillman et al., 2008]).
as §1, with “1989]).” for “1989]). Several inhibitors used in this study caused inner filter effects ([Gu and Kenny, 2009]; [Srinivas and Mutharasan, 1987]); in these cases calibration curves were generated with the inhibitors present.”
The initial Na^+ influx rate (at t = 0) is a × Δ[Na^+]i^max.
as §3

[5] = test system: P. falciparum Dd2^attB parent; experiment: Disruption of [Na^+]i regulation, SBFI-loaded trophozoites, Dd2^attB parent; format: cell-based; settings: Plasmodium falciparum, from fitted curves, read-out: IC50 for disruption of Na^+ regulation by NITD246
Experimental: as §1, with “present. […]” for “present.”

[6] = test system: P. falciparum NITD609-R^Dd2 clone #2 (mutant PfATP4); experiment: Disruption of [Na^+]i regulation, SBFI-loaded trophozoites, NITD609-R^Dd2 clone #2; format: cell-based; settings: Plasmodium falciparum, from fitted curves, read-out: IC50 for disruption of Na^+ regulation by NITD246
Experimental: as §1, with “present. […]” for “present.”

[7] = test system: P. falciparum NITD609-R^Dd2 clone #2 (mutant PfATP4); experiment: Parasite proliferation, [^3H]hypoxanthine incorporation, NITD609-R^Dd2 clone #2; format: cell-based; settings: Plasmodium falciparum, mean ± SEM (n), read-out: IC50 for inhibition of parasite proliferation by NITD246
Experimental: as §2, §3

P. falciparum Dd2 parent [8] = experiment: Disruption of [Na^+]i regulation, SBFI-loaded trophozoites, Dd2 parent; format: cell-based; settings: Plasmodium falciparum, DD2, read-out: IC50 for disruption of Na^+ regulation by NITD246
Experimental: as §1, with “present. […]” for “present.”

What does the source list for `C[C@H]1Cc2c([nH]c3cc(F)c(F)cc23)[C@@]2(N1)C(=O)Nc1ccc(Cl)cc12` [NITD246]?
Effect on recovery of [Na^+]i after Na^+ load ([1]; 1 nM): [Na^+]i remaining at the level reached at the point of addition of extracellular K^+; Effect on recovery of [Na^+]i after Na^+ load ([1]; 5 nM): prolonged time-dependent increase in [Na^+]i; IC50 (P. falciparum Dd2 parent [2]): 0.08 ± 0.01 nM; Cytosolic pH (pHi) after addition ([3]; Na^+-containing medium pH 7.1, increase from 7.33 ± 0.03, n = 6, p = 0.009): 7.46 ± 0.02; Effect on pHi ([3]; solution containing choline^+ in place of Na^+): no significant effect; Effect on resting [Na^+]i ([4]; 50 nM, 3D7, standard saline): immediate rapid increase in [Na^+]i; IC50 ([4]; Plasmodium falciparum, concentration causing [Na^+]i to increase from resting value at half the maximal rate, from fitted curves, 3D7, standard saline, read-out: IC50 for disruption of Na^+ regulation): 2.1 ± 0.8 nM; Rate of increase of [Na^+]i at maximally effective concentrations ([4]; maximally effective concentration): 0.092 ± 0.007 mM/s; IC50 [5]: 1.7 ± 0.5 nM; IC50 [6]: 10.4 ± 8.4 nM; IC50 [7]: 0.89 ± 0.12 nM; IC50 (P. falciparum Dd2 parent [8]): 1.6 ± 0.3 nM
